Assay results published in patent publication US6436908B1, “Use of exogenous β-adrenergic receptor and β-adrenergic receptor kinase gene constructs to enhance myocardial function” (Duke University, priority 1995, dated 2002).
Like-named read-outs stand apart in the source and are kept apart here.

Key:
[1] = target: Gβγ; assay: cell-based or functional assay
[2] = target: T1, β1-AR (Mus musculus, UniProt P34971); assay: ICI 118,551 competition binding against [125I]cyanopindolol, control heart sarcolemmal membranes, low affinity component
T1 construct: Sarcolemmal membranes were prepared from control mouse hearts; from tissue; host or cells: sarcolemmal membranes of control mouse hearts (A3), and of control and TGβK12 mouse hearts (A4)
Method: Myocardial sarcolemmal membranes were prepared by homogenizing whole hearts in ice-cold buffer A [50 mM HEPES (pH 7.3), 150 mM KCl, 5 mM EDTA]. Nuclei and tissue were separated by centrifugation at 800×g for 10 min and the crude supernatant was then centrifuged at 20,000×g for 10 min. The subsequent pellet was resuspended in buffer A and centrifuged at 20,000×g for 10 min. The final pellet was resuspended at a concentration of 2-3 mg protein per ml in buffer B [50 mM HEPES (pH7.3), 5 mM MgCl2].

[3] = system: left ventricular function; assay: LV dP/dtmax before and after systemic β2-AR antagonist; format: in vivo, mouse
Description: FIG. 7. Effect of administering β-AR antagonist. […] Asterisks indicate p<0.05, paired Student's T-test.

[4] = system: left ventricular function; assay: In vivo assessment of left ventricular function, TG4 and control mice; design: species or system mouse
[5] = target: adenylyl cyclase; format: biochemical, mouse; settings: for EC50: read-out: EC50 of isoproterenol-stimulated adenylyl cyclase activity; for NaF stimulated cyclase activity, mean (±SD): 10 mM NaF
Method: FIG. 4. Adenylyl Cyclase Activity. Membranes were prepared from TG4 hearts and nontransgenic litter mate control hearts as described in FIG. 2. […] Each point on the graph represents the mean±SEM of seven independent experiments each performed in duplicate.
The inotropic response resulting from myocardial β-AR stimulation is mediated through activation of adenylyl cyclase and the intracellular second messenger cAMP. To assess whether the myocardium of transgenic animals overexpressing β2-AR had enhanced adenylyl cyclase activity, myocardial membranes were incubated with [^32P]ATP and the rate of cAMP formation was measured.

[6] = system: isolated atria; assay: Isometric tension development in isolated atria; design: species or system mouse; settings: TG4 atria, doses maximally stimulating controls
Method: FIGS. 5A-C. Baseline and maximally stimulated responses in isolated atria. Atria were suspended under optimal resting tension in modified Kreb's bicarbonate solution at 30° C. […]. Data are shown as the mean values±SEM for control animals (n=7 or 8) and TG4 animals (n=5 or 6). In all three responses, the baseline values for the TG4 animals were greater than the baseline in the control animals (* P<0.05 Student's t-test), but not different from either control isoproterenol-stimulated values or from TG4 isoproterenol-stimulated values.
To directly assess the effect of β2-AR overexpression on myocardial inotropy, isometric tension development was determined in isolated, perfused atria. […] In the left atria, basal tension was approximately three times that of the control levels. Baseline isometric tension in the transgenics was not different from the maximal isoproterenol-stimulated tension in control atria. […] To eliminate the possibility that this increased rate might be contributing to the increased tension measured in the transgenic myocardium, experiments were conducted to assess the relationship of rate to developed tension. From a rate of 240 to 360 beats/min. […] All atria studied were weighed, and no significant differences were noted between transgenic and control weights.

[7] = system: left ventricular function; assay: In vivo assessment of left ventricular function, TGβK12 and TGMini27 mice; design: species or system mouse; settings: for mean LV dP/dtmax (maximum contractility): 500 pg isoproterenol; for mean LV dP/dtmin (maximum LV relaxation): 1000 pg isoproterenol
Method: FIG. 12. In vivo assessment of left ventricular function of TGβK12 (n=10) and nontransgenic control mice (n=10). Animals were anesthetized and aortic and left ventricular catheters placed (28). […]; (B) LV dP/dtmin; (C) heart rate (HR); and (D) LV systolic pressure. Data are reported as means±SEM and were analyzed with a two way analysis of variance (ANOVA) with post hoc testing performed using Scheffe's F test (*, P<0.05). […]; (B) dP/dtmin, P<0.05; (C) HR, P<0.01 but not (D) LV systolic pressure, P=ns.
FIG. 13. In vivo assessment of left ventricular function of TGMini27 (n=7) and nontransgenic control mice (n=7). Mice were treated as in FIG. 4 (28) and four parameters are shown; (A) LV dP/dtmax,; (B) LV dP/dtmin; (C) HR; and (D) LV systolic pressure. Data are reported as mean±SEM and were analyzed as in FIG. 4 (*, P<0.05). […]; (B) dP/dtmin, P<0.005; and (D) LV systolic pressure, P<0.005.
Mice were anesthetized with a mixture of ketamine and xylazine (Milano et al., Science 264, 582 (1994)). A cervical incision was made, the trachea intubated and the animal connected to a volume-cycled ventilator. A carotid artery was then cannulated with a flamestretched PE 50 catheter connected to a modified P50 statham transducer. […]. Continuous pressures were recorded on an eight channel chart recorder and in digitized form on computer disk for beat averaging. Ten sequential beats were averaged for each measurement.

[8] = target: Gβγ
[9] = system: βARK; assay: GRK activity of heart extracts, rhodopsin phosphorylation assay; format: biochemical, mouse; settings: TGMini27 heart extracts, 50 μg protein, ~10 pmoles Gβγ, n=5

T1 sequence (P34971 whole entry): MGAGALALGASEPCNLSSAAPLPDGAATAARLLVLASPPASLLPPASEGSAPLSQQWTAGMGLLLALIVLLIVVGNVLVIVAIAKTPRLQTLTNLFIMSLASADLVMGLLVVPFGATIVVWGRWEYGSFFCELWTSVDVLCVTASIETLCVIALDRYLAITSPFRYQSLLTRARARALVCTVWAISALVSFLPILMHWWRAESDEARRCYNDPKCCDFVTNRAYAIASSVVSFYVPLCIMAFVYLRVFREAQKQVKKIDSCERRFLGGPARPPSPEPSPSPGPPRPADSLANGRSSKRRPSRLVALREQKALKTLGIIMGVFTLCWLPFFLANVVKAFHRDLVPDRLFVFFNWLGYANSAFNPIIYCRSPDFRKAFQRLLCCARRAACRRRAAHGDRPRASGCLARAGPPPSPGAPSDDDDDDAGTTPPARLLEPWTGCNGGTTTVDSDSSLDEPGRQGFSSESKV

## βARK1-(495-689) Minigene (from UniProt P21146 495-689)
[1]
  stimulation of rhodopsin phosphorylation upon addition of Gβγ (~10 pmoles), heart extracts from TGMini27 mice (fold over basal): 2.16

## Cc1ccc(OCC(O)C(C)NC(C)C)c2c1CCC2 (stereo not shown) [ICI 118,551]
[2]
  Ki: 390 nM
[2]; 75 nM ICI 118,551
  effect on the β1-AR binding component: insignificantly affecting
[2]; control mouse heart sarcolemmal membranes
  share of low affinity binding population (β1 subtype): 75%
[3]; TG4 transgenic mice, 5 μg systemic, four minutes after administration
  change in elevated baseline LV dP/dtmax: Marked decreases
[3]; control animals
  change in LV dP/dtmax: no significant change

## CC(C)NCC(O)c1ccc(O)c(O)c1 (stereo not shown) [isoproterenol]
[4]; control animals, isoproterenol infusion
  change in LV dP/dtmax: progressive increases
[4]; doses greater than 1 nanogram
  effect on blood pressure: significant lowering of blood pressure
[5]; TG4 heart membranes
  EC50: 22 nM
[5]; nontransgenic control heart membranes
  EC50: 160 nM
[6]
  inotropic response of atria (isometric tension): no further inotropic response
[7]; TGMini27 mice versus controls
  left ventricular responses to isoproterenol: markedly enhanced
[7]; TGMini27 mice
  mean LV dP/dtmax (maximum contractility): 10,821 mm Hg per sec
  mean LV dP/dtmin (maximum LV relaxation): −8071 mm Hg per second
[7]; TGβK12 animals versus controls
  inotropic and chronotropic responses to isoproterenol: significantly reduced
[7]; TGβK12 mice
  mean LV dP/dtmax (maximum contractility): 6457 mm Hg per sec
  mean LV dP/dtmin (maximum LV relaxation): −4350 mm Hg per second

## [F-].[Na+] [NaF]
[5]; control membranes
  NaF stimulated cyclase activity, mean (±SD): 606.4±207.8 pmol cAMP/min/mg protein
[5]; transgenic (TG4) membranes
  NaF stimulated cyclase activity, mean (±SD): 445.5±165.5 pmol cAMP/min/mg protein

B1: myocardial βARK (protein)
chain: MADLEAVLADVSYLMAMEKSKATPAARASKKILLPEPSIRSVMQKYLEDRGEVTFEKIFSQKLGYLLFRDFCLNHLEEAKPLVEFYEEIKKYEKLETEEERVVRSREIFDSYIMKELLACSHPFSKNATEHVQGHLVKKQVPPDLFQPYIEEICQNLRGDVFQKFIESDKFTRFCQWKNVELNIHLTMNDFSVHRIIGRGGFGEVYGCRKADTGKMYAMKCLDKKRIKMKQGETLALNERIMLSLVSTGDCPFIVCMSYAFHTPDKLSFILDLMNGGDLHYHLSQHGVFSEADMRFYAAEIILGLEHMHNRFVVYRDLKPANILLDEHGHVRISDLGLACDFSKKRPHASVGTHGYMAPEVLQKGVAYDSSADWFSLGCMLFKLLRGHSPFRQHKTKDKHEIDRMTLTMAVELPDSFSPELRSLLEGLLQRDVNRRLGCLGRGAQEVKESPFFRSLDWQMVFLQKYPPPLIPPRGEVNAADAFDIGSFDEEDTKGIKLLDSDQELYRNFPLTISERWQQEVAETVFDTINAETDRLEARKKAKNKQLGHEEDYALGKDCIVHGYMSKMGNPFLTQWQRRYFYLFPNRLEWRGEGEAPQSLLTMEEIQSVEETQIKERKCLLLKIRGGKQFVLQCDSDPELVQWKKELRDAYREAQQLVQRVPKMKNKPRSPVVELSKVPLIQRGSANGL
[8]
  stimulation of rhodopsin phosphorylation upon addition of Gβγ (~10 pmoles), control heart extracts: 3.02±0.31 fold over basal, n=5

B2: βARK1-(495-689) Minigene: coding sequence for the last 194 amino acids of bovine βARK1; expressed soluble protein, in vivo βARK inhibitor (protein)
chain: GIKLLDSDQELYRNFPLTISERWQQEVAETVFDTINAETDRLEARKKTKNKQLGHEEDYALGKDCIMHGYMSKMGNPFLTQWQRRYFYLFPNRLEWRGEGEAPQSLLTMEEIQSVEETQIKERKCLLLKIRGGKQFVLQCDSDPELVQWKKELRDAYREAQQLVQRVPKMKNKPRSPVVELSKVPLIQRGSANGL
[9]
  stimulation of rhodopsin phosphorylation by Gβγ: 2.16±0.12 fold over basal
[7]; TGMini27 mice, baseline
  baseline LV dP/dtmax, LV dP/dtmin and LV systolic pressure compared to control animals: statistically elevated
